According to US9211310B2, “Use of a Chinese medicine composition in preparing medicaments for treating secondary prevention of myocardial infarction” (TASLY PHARMACEUTICAL GROUP CO., LTD, priority 2010, dated 2015):

Test system: patients after acute myocardial infarction
Test: Life quality, Seattle Angina Questionnaire (SAQ), same clinical trial
Assay type: in vivo, human
Conditions: FAS
From the text: 3508 patients who were in accordance with the diagnostic standards of AMI for 28 days to 2 years and differentiated as Qi deficiency and blood stagnation syndrome by TCM were studied. 0.5 g Chinese medicine composition prepared by the method of EXAMPLE 1 (Coded as QSYQ) was administrated half an hour after meal, 3 times per day.
There were 19 questions in the Seattle angina questionnaire (SAQ), including 5 parts: physical limitation (PL), anginal stability (AS), anginal frequency (AF), treatment satisfaction (TS) and disease perception (DP). After being given necessary explanation by doctors, the questions were answered independently by patients.
They included the overall survival time, angina pectoris score, TCM symptom score and life quality score, where angina pectoris score, TCM symptom score and life quality score were evaluated at randomization, in 1st, 3rd, 6th, 9th, 12th month after treatment and 18th month after follow-up.
All evaluation results of SAQ were described during the period of observation, and Wilcoxon rank sum test was used for inter-group comparison.
The evaluation results in the SAQ were depicted in different observations, and inter-group comparison was tested by Wilcoxon Rank-sum test.

CC(=O)Oc1ccccc1C(=O)O [Control group, aspirine]
SAQ 5th question, ≧4 times per day: % of patients (12 months after treatment): (0.80%) | SAQ 5th question, ≧4 times per day: number of patients (12 months after treatment): 14 | SAQ 6th question, Dissatisfied: % of patients (12 months after treatment): (0.29%) | SAQ 6th question, Dissatisfied: number of patients (12 months after treatment): 5 | SAQ 6th question, Highly satisfied: % of patients (12 months after treatment): (25.86%) | SAQ 6th question, Highly satisfied: number of patients (12 months after treatment): 451 | SAQ 6th question, Mostly dissatisfied: % of patients (12 months after treatment): (1.55%) | SAQ 6th question, Mostly dissatisfied: number of patients (12 months after treatment): 27 | SAQ 6th question, Mostly satisfied: % of patients (12 months after treatment): (60.61%) | SAQ 6th question, Mostly satisfied: number of patients (12 months after treatment): 1057 | SAQ 6th question, Partly satisfied: % of patients (12 months after treatment): (11.70%) | SAQ 6th question, Partly satisfied: number of patients (12 months after treatment): 204 | SAQ 7th question, Dissatisfied: % of patients (12 months after treatment): (0.11%) | SAQ 7th question, Dissatisfied: number of patients (12 months after treatment): 2 | SAQ 7th question, Highly satisfied: % of patients (12 months after treatment): (29.56%) | SAQ 7th question, Highly satisfied: number of patients (12 months after treatment): 515 | SAQ 7th question, Mostly dissatisfied: % of patients (12 months after treatment): (0.75%) | SAQ 7th question, Mostly dissatisfied: number of patients (12 months after treatment): 13 | SAQ 7th question, Mostly satisfied: % of patients (12 months after treatment): (59.82%) | SAQ 7th question, Mostly satisfied: number of patients (12 months after treatment): 1042 | SAQ 7th question, Partly satisfied: % of patients (12 months after treatment): (9.76%) | SAQ 7th question, Partly satisfied: number of patients (12 months after treatment): 170 | SAQ Question 1-1 Mildly limited, number of patients (12 months after treatment): 15 | SAQ Question 1-1 Mildly limited, percent of patients (12 months after treatment): (0.86%) | SAQ Question 1-1 Moderately limited, number of patients (12 months after treatment): 4 | SAQ Question 1-1 Moderately limited, percent of patients (12 months after treatment): (0.23%) | SAQ Question 1-1 Not limited, number of patients (12 months after treatment): 1659 | SAQ Question 1-1 Not limited, percent of patients (12 months after treatment): (95.13%) | SAQ Question 1-1 Other reasons, number of patients (12 months after treatment): 4 | SAQ Question 1-1 Other reasons, percent of patients (12 months after treatment): (0.23%) | SAQ Question 1-1 Severely limited, number of patients (12 months after treatment): 1 | SAQ Question 1-1 Severely limited, percent of patients (12 months after treatment): (0.06%) | SAQ Question 1-1 Slightly limited, number of patients (12 months after treatment): 61 | SAQ Question 1-1 Slightly limited, percent of patients (12 months after treatment): (3.50%) | SAQ Question 1-2 Mildly limited, number of patients (12 months after treatment): 18 | SAQ Question 1-2 Mildly limited, percent of patients (12 months after treatment): (1.03%) | SAQ Question 1-2 Moderately limited, number of patients (12 months after treatment): 6 | SAQ Question 1-2 Moderately limited, percent of patients (12 months after treatment): (0.34%) | SAQ Question 1-2 Not limited, number of patients (12 months after treatment): 1647 | SAQ Question 1-2 Not limited, percent of patients (12 months after treatment): (94.44%) | SAQ Question 1-2 Other reasons, number of patients (12 months after treatment): 6 | SAQ Question 1-2 Other reasons, percent of patients (12 months after treatment): (0.34%) | SAQ Question 1-2 Severely limited, number of patients (12 months after treatment): 0 | SAQ Question 1-2 Severely limited, percent of patients (12 months after treatment): (0.00%) | SAQ Question 1-2 Slightly limited, number of patients (12 months after treatment): 67 | SAQ Question 1-2 Slightly limited, percent of patients (12 months after treatment): (3.84%) | SAQ Question 1-6: Mildly limited, patients (%) (12 months after treatment): (14.93%) | SAQ Question 1-6: Moderately limited, patients (%) (12 months after treatment): (9.70%) | SAQ Question 1-6: Not limited, patients (%) (12 months after treatment): (40.47%) | SAQ Question 1-6: Other reasons, patients (%) (12 months after treatment): (0.86%) | SAQ Question 1-6: Severely limited, patients (%) (12 months after treatment): (2.58%) | SAQ Question 1-6: Slightly limited, patients (%) (12 months after treatment): (31.46%) | SAQ Question 1-7: Mildly limited, patients (%) (12 months after treatment): (20.46%) | SAQ Question 1-7: Moderately limited, patients (%) (12 months after treatment): (11.10%) | SAQ Question 1-7: Not limited, patients (%) (12 months after treatment): (20.46%) | SAQ Question 1-7: Other limited, patients (%) (12 months after treatment): (3.29%) | SAQ Question 1-7: Severely limited, patients (%) (12 months after treatment): (12.95%) | SAQ Question 1-7: Slightly limited, patients (%) (12 months after treatment): (31.73%) | SAQ Question 1-8: Mildly limited, patients (%) (12 months after treatment): (24.72%) | SAQ Question 1-8: Moderately limited, patients (%) (12 months after treatment): (13.35%) | SAQ Question 1-8: Not limited, patients (%) (12 months after treatment): (13.64%) | SAQ Question 1-8: Other reasons, patients (%) (12 months after treatment): (3.95%) | SAQ Question 1-8: Severely limited, patients (%) (12 months after treatment): (16.89%) | SAQ Question 1-8: Slightly limited, patients (%) (12 months after treatment): (27.45%) | 8th question: Dissatisfied, patients (%) (Baseline): (0.92%) | 8th question: Highly satisfied, patients (%) (Baseline): (15.62%) | 8th question: Mostly dissatisfied, patients (%) (Baseline): (6.55%) | 8th question: Mostly satisfied, patients (%) (Baseline): (46.01%) | 8th question: Partly satisfied, patients (%) (Baseline): (30.90%) | 9th question: Few, patients (%) (Baseline): (21.02%) | 9th question: Mild, patients (%) (Baseline): (36.70%) | 9th question: Moderate, patients (%) (Baseline): (26.88%) | 9th question: Severe, patients (%) (Baseline): (3.62%) | 9th question: Uneffective, patients (%) (Baseline): (11.77%) | 10th question: Dissatisfied, patients (%) (Baseline): (25.90%) | 10th question: Highly satisfied, patients (%) (Baseline): (2.30%) | 10th question: Mostly dissatisfied, patients (%) (Baseline): (23.72%)
